# Data from ChEMBL document CHEMBL5365420, “Kinetics, Thermodynamics, and Structural Effects of Quinoline-2-Carboxylates, Zinc-Binding Inhibitors of New Delhi Metallo-β-lactamase-1 Re-sensitizing Multidrug-Resistant Bacteria for Carbapenems” (J Med Chem, 2023).
# Key:
# [1] = target: T1, 72 kDa type IV collagenase (Homo sapiens, UniProt P08253); assay: Inhibition of human recombinant MMP-2 CD at 10 uM using OMNIMMP as substrate incubated for 30 mins by fluorescence based analysis relative to control
# Target sequence in this assay (P08253 110-660 limits assumed): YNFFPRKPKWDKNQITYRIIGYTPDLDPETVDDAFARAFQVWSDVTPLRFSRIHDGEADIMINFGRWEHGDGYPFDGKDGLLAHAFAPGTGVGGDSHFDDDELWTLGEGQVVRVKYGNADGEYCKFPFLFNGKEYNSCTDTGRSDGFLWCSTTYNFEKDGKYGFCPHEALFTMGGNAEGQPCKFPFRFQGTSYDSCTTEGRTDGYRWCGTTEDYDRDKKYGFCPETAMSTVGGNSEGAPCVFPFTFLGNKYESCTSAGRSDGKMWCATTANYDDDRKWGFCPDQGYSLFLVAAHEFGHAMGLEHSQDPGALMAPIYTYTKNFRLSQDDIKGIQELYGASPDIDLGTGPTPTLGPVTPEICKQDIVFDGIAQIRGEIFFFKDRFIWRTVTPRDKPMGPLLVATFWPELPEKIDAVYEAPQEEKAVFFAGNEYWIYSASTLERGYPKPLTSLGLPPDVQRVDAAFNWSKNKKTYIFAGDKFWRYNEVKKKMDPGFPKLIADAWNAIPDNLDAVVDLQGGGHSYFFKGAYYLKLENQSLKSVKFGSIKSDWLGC
# [2] = target: Histone deacetylase 1 (Homo sapiens) (UniProt Q13547); assay: Inhibition of C-terminal 6His/FLAG-tagged human recombinant full-length HDAC1 (1 to 482(end) residues) at 10 uM using Boc-Lys-(Ac)-AMC as substrate incubated for 10 mins followed by substrate addition measured after 1 hr by fluorescence based analysis relative to control; details: time 70.0 min
# [3] = target: Carbonic anhydrase 2 (Homo sapiens) (UniProt P00918); assay: Inhibition of human CA2 at 10 uM using pNPA as substrate preincubated for 15 mins followed by substrate by absorbance based analysis relative to control
# [4] = target: Metallo-beta-lactamase type 2 (Bacteria, UniProt C7C422)
# Description: Inhibition of C-terminal 6His-tagged full length NDM-1 (unknown origin) expressed in Escherichia coli BL21-DE3 using nitrocefin as substrate incubated for 15 mins followed by substrate addition by absorbance based microplate reader analysis
# [5] = Inhibition of IMP-1 (unknown origin) expressed in Escherichia coli BL21-DE3 incubated for 15 mins by absorbance based microplate reader analysis; design: species or system Bacteria
# [6] = Inhibition of VIM-2 (unknown origin) incubated for 15 mins by absorbance based microplate reader analysis; design: species or system Bacteria
# [7] = Inhibition of GIM1 (unknown origin) incubated for 15 mins by absorbance based microplate reader analysis; design: species or system Bacteria
# [8] = Selectivity ratio of Ki for human recombinant MMP-2 CD to Ki for C-terminal 6His-tagged full length NDM-1 (unknown origin)
# [9] = target: T1, 72 kDa type IV collagenase; assay: Binding affinity to human recombinant MMP-2 CD assessed as inhibition constant using OMNIMMP as substrate incubated for 30 mins by fluorescence based analysis
# Target sequence in this assay (P08253 whole entry): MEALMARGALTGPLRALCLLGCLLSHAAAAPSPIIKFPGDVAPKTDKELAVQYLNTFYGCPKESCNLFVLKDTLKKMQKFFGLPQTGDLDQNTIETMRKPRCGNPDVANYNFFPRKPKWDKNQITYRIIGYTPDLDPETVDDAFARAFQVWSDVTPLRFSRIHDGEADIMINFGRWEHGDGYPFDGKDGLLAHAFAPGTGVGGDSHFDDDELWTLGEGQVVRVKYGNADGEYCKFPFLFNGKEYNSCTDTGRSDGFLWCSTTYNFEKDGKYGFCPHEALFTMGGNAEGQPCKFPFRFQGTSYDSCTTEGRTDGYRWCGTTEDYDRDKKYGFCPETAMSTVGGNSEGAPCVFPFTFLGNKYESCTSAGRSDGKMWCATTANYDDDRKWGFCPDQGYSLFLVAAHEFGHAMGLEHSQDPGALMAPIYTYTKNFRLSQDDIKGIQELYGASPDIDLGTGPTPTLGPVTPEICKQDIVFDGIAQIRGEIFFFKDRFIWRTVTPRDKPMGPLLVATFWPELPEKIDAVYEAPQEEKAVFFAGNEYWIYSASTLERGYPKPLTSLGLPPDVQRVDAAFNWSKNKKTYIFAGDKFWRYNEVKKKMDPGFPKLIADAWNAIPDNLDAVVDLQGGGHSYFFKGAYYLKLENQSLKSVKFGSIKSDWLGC
# Sequence of Histone deacetylase 1 (Homo sapiens) (Q13547 whole entry): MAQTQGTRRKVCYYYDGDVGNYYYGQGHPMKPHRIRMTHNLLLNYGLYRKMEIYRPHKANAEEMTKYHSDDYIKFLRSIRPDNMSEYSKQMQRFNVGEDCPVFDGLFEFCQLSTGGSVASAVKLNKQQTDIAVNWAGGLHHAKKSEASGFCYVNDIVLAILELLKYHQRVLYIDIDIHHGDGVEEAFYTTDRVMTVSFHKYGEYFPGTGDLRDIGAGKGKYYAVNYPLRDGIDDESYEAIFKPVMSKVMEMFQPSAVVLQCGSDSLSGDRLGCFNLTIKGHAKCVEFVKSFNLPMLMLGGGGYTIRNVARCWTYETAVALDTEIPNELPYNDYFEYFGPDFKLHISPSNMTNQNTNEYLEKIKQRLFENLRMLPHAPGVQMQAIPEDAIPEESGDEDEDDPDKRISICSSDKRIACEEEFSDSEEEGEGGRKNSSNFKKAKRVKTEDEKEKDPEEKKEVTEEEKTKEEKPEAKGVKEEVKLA
# Sequence of Metallo-beta-lactamase type 2 (C7C422 whole entry): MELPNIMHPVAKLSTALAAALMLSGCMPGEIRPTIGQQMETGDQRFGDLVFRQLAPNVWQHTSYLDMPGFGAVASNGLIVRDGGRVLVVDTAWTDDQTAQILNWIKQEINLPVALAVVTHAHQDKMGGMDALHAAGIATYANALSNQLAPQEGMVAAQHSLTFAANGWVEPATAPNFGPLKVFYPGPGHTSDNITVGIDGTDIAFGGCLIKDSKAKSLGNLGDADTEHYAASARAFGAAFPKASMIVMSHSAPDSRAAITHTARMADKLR
smiles,measurement,setting,value
CS(=O)(=O)Nc1ccc(-c2cccc(N)c2)c2ccc(C(=O)O)nc12,inhibition,[1],95%
same,inhibition,[2],< 5%
same,inhibition,[3],< 5%
same,IC50,[4],2.1 µM
COC(=O)c1ccc2cccc(NS(C)(=O)=O)c2n1,IC50,[4],17.6 µM
CS(=O)(=O)Nc1ccc(I)c2ccc(C(=O)O)nc12,inhibition,[1],94%
same,inhibition,[2],< 5%
same,inhibition,[3],< 5%
same,IC50,[4],1.4 µM
Cc1ccc(S(=O)(=O)Nc2cccc3ccc(C(=O)O)nc23)cc1,IC50,[4],1.41 µM
Cc1ccc2cccc(O)c2n1 [8-HYDROXY QUINALDINE],IC50,[4],274 µM
N#Cc1ccccc1S(=O)(=O)Nc1cccc2ccc(C(=O)O)nc12,IC50,[4],0.47 µM
Oc1cccc2ccc(-c3ccccc3)nc12,IC50,[4],> 1000 µM
O=C(O)c1cccc(C(=O)O)n1 [DIPICOLINIC ACID],IC50,[5],9.75 µM
same,inhibition,[1],< 5%
same,IC50,[6],0.45 µM
same,IC50,[7],15.6 µM
same,inhibition,[2],< 5%
same,inhibition,[3],< 5%
same,IC50,[4],7 µM
O=C(O)c1ccc2c(Cl)c(Cl)cc(NS(=O)(=O)c3ccccn3)c2n1,IC50,[4],0.52 µM
O=C(O)c1ccc2cccc(NS(=O)(=O)Cc3ccccc3)c2n1,IC50,[4],1.28 µM
O=C(O)c1ccc2c(Cl)ccc(NS(=O)(=O)c3ccccn3)c2n1,IC50,[4],0.29 µM
CONC(=O)c1ccc2cccc(O)c2n1,IC50,[4],13.7 µM
O=C(NOCc1ccccc1)c1ccc2c(Br)cc(Br)c(O)c2n1,IC50,[4],1.47 µM
O=S(=O)(Nc1cccc2cccnc12)c1cccc(F)c1,IC50,[4],6.2 µM
O=C(O)c1ccc2cccc(NS(=O)(=O)c3c(Cl)cc(Cl)cc3Cl)c2n1,IC50,[4],0.44 µM
O=C(O)c1ccc2cccc(NS(=O)(=O)c3ccccc3Cl)c2n1,IC50,[4],0.44 µM
O=C(O)c1ccc2cccc(NS(=O)(=O)c3ccc(Cl)cc3)c2n1,IC50,[4],0.45 µM
CON(C)C(=O)c1ccccn1,IC50,[4],> 2000 µM
O=C(O)c1ccc2ccc3c(c2n1)NS(=O)(=O)c1ccc(C(F)(F)F)cc1-3,inhibition,[1],> 90%
same,inhibition,[2],< 5%
same,inhibition,[3],< 5%
same,Ratio Ki,[8],135
same,Ki,[9],27.6 µM
same,IC50,[4],0.41 µM
O=C([O-])CN(CCN(CC(=O)[O-])CC(=O)O)CC(=O)O.[Na+].[Na+],inhibition,[1],23%
same,inhibition,[2],< 5%
same,inhibition,[3],< 5%
O=C(NOCc1ccccc1)c1ccc2cccc(O)c2n1,IC50,[5],25.2 µM
same,IC50,[4],11.2 µM
O=C(O)c1ccccn1 [2-PICOLINIC ACID],IC50,[4],303 µM
O=C(NO)c1cccc(C(=O)NO)n1,IC50,[4],> 1000 µM
CS(=O)(=O)Nc1c(Cl)cc(Cl)c2ccc(C(=O)O)nc12,IC50,[4],> 1000 µM
O=C(O)c1ccc2c(Cl)cc(I)c(O)c2n1,IC50,[4],0.48 µM
O=C(NOCc1ccccc1)c1cccc(C(=O)NOCc2ccccc2)n1,IC50,[5],102 µM
same,inhibition,[1],< 5%
same,inhibition,[2],< 5%
same,inhibition,[3],< 5%
same,IC50,[4],7.2 µM
O=C(O)c1cc(-c2cccc(F)c2)c2cccc(NS(=O)(=O)c3ccccn3)c2n1,IC50,[4],0.37 µM
